The values below come from article PMC9995496, “A screen for MeCP2-TBL1 interaction inhibitors using a luminescence-based assay” (Scientific Reports, 2023).

In this assay the target is T1, MeCP2-TBL1 interaction (MeCP2-SmBiT / TBL1-LgBiT) (Mus musculus, UniProt Q9QXE7).
T1 construct: expressed in transfected cells; crude lysate used as a cell-free assay
T1 sequence (Q9QXE7 166-527): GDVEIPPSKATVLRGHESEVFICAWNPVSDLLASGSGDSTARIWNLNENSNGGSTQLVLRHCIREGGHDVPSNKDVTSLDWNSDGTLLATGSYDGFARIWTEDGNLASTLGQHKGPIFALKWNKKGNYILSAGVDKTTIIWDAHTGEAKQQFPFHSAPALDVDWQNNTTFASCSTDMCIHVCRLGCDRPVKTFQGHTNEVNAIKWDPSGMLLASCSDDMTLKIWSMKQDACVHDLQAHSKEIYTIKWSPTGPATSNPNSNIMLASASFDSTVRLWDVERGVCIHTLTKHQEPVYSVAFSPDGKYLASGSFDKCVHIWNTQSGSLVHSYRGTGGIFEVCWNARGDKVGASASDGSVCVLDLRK
Kind of assay: MeCP2-TBL1 NanoLuc luciferase complementation assay (cell-free, extracts of transfected HEK293 cells).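 Note: each compound tested at 20 µM final concentration.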 It counts as binding, human. The procedure, abridged: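 Cell-free split NanoLuc: lysate of HEK293 cells co-expressing the MeCP2 C-terminal half-SmBiT and TBL1 WD domain-LgBiT, mixed 1:1 with furimazine. After 30 min at room temperature, luminescence was plate-median normalized.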

The mark [1] stands for this setting: primary screen of Asinex library, single well per compound.
The mark [2] stands for this setting: primary screen of the Asinex library, sheet "Sargen output Asinex library", one well per compound.
Setting [3] is: primary screen of the Asinex library, sheet "Sargen output Asinex library", one well per compound, Batch Ref. 1.

In the case of `Cc1cc(C)n(-c2cccc(C(=O)N3CCCC(c4cncc(Oc5ccccc5)n4)C3)c2)n1` (stereo not drawn) [BDH_32356802], the Inhibition percent under setting [1] was -1.24.

In the case of `O=C(NCCC1CCCCN1C(=O)c1ccnc(Oc2cccc(F)c2)c1)c1ccccc1` (stereo not drawn) [BDH_32356851], the Inhibition percent under setting [2] is -4.31%.

Take `CN1CCCC(CCCc2cnccn2)(C(=O)N2CCC(Cc3cccc4cccnc34)CC2)C1` (stereo not drawn) [BDH_32356918]: the Inhibition percent under setting [2] is -2.36%.

On to `O=C(c1cccc(Nc2ncccn2)c1)N1C2CCC1CC(Cc1ccc3ccncc3c1)C2` (stereo not drawn) [BDH_32356948], for which the Inhibition percent under setting [1] is 3.03.

On to `Cc1ccc(Oc2cc(C)nc(C3CCCCN3C(=O)c3ccnc(-c4cnn(C)c4)c3)n2)cc1` (stereo not drawn) [BDH_32357088], for which, under setting [2], the Inhibition percent was 0.88%.

In the case of `O=C1OC2(CCCN(Cc3ccccc3OCc3ccccn3)CC2)CN1c1ccc(F)cc1` (stereo not drawn) [BDH_32357695], the Inhibition percent under setting [1] was found to be 1.61.

Regarding `O=C(c1ccccc1OCCN1CCOCC1)N1CCCC(Cc2ccc3ncccc3c2)C1` (stereo not drawn) [BDH_32358044], under setting [2], the Inhibition percent is listed as -2.19%.

Consider `Cc1cccc(Oc2cncc(C3CCCN(C(=O)c4ccnc(N5CCN(C)CC5)c4)C3)n2)c1` (stereo not drawn) [BDH_32358106], for which, under setting [3], the Inhibition percent came to 0.42%.

For `Cc1cc(Oc2ccccc2)nc(C2CCN(C(=O)c3ccnc(N4CCN(C)CC4)c3)CC2)n1` [BDH_32358107], the Inhibition percent under setting [2] was -1.62%.

With `O=C1CCCC[C@]2(CN(Cc3ccccc3OCc3ccccn3)C[C@H]2c2ccc(F)cc2)N1` [BDH_32358404], the Inhibition percent under setting [2] is on record as 1.07%.

Regarding `O=C1CCCN1CCOc1cccc(C(=O)N2CCCC(Cc3ccnc4ccccc34)CC2)c1` (stereo not drawn) [BDH_32358595], under setting [1], the Inhibition percent is reported as -2.39.

As for `O=C1CCCN1CCOc1cccc(C(=O)N2CCCC(Cc3cnc4ccccc4c3)CC2)c1` (stereo not drawn) [BDH_32358596], the Inhibition percent under setting [2] is reported as -12.20%.

`O=C1CCCN1CCOc1ccccc1C(=O)N1CCCC(Cc2ccc3ncccc3c2)CC1` (stereo not drawn) [BDH_32358602]: the Inhibition percent under setting [2] is given as -0.32%.

For `COc1ccc(C2(C(=O)N3CCCC(Cc4cccc5ccncc45)CC3)CCOCC2)cc1` (stereo not drawn) [BDH_32359024], the Inhibition percent under setting [2] was 2.06%.

With `CN(C)CC(=O)N1CCCC(C)(C(=O)N2CCC(c3cccc(Cc4ccccc4)n3)CC2)C1` (stereo not drawn) [BDH_32359557], under setting [3], the Inhibition percent is 2.74%.

Consider `Fc1cccc(COc2ccccc2CN2CCOCC(Cc3cn4ccnc4cn3)C2)c1` (stereo not drawn) [BDH_32359710], for which the Inhibition percent under setting [2] was -1.22%.

`COc1ccccc1[C@@H]1CN(Cc2cccc(Oc3ncccn3)c2)C[C@]12CCCCC(=O)N2` [BDH_32359781]: the Inhibition percent under setting [2] is -0.97%.

For `Cc1cc(Oc2ccccc2)nc(C2CCN(C(=O)C3(C)CCN(c4ncccn4)CC3)CC2)n1` [BDH_32359876], the Inhibition percent under setting [2] was determined as 3.25%.

As for `COc1ccc(C(=O)N2CCCC(Cc3cccc4ncccc34)C2)cc1NCc1ccncc1` (stereo not drawn) [BDH_32359947], under setting [1], the Inhibition percent is -3.52.

Take `COc1ccc(C(=O)N2CCCC(Cc3ccc4ncccc4c3)C2)cc1NCc1ccncc1` (stereo not drawn) [BDH_32359951]: under setting [2], the Inhibition percent was -4.50%.

As for `Cc1ccc(Oc2cccc(C3CN(C(=O)c4cccc(Cn5ccnc5)c4)CCO3)n2)cc1` (stereo not drawn) [BDH_32360064], the Inhibition percent under setting [3] stood at 8.15%.

Take `O=C1CCCN1CCOc1cccc(C(=O)N2CCCC(Cc3cccc4cnccc34)CC2)c1` (stereo not drawn) [BDH_32360253]: under setting [2], the Inhibition percent was determined as 1.74%.

Consider `Cc1cccc(Oc2cncc(C3CCCN(C(=O)c4cccc(Cn5ccnc5C)c4)C3)n2)c1` (stereo not drawn) [BDH_32360361], for which, under setting [2], the Inhibition percent was found to be 0.07%.

In the case of `Cc1nonc1COc1ccccc1C(=O)N1CCCC(Cc2nccn3cccc23)CC1` (stereo not drawn) [BDH_32360822], the Inhibition percent under setting [2] worked out at 2.59%.

For the compound `O=C(c1ccccc1CN1CCOCC1)N1C2CCC1CC(Cc1cncc3ccccc13)C2` (stereo not drawn) [BDH_32360830], under setting [2], the Inhibition percent is -0.42%.

`CC1(C(=O)N2CCCC(Cc3cccc4ccncc34)CC2)CCN(C(=O)c2ccccc2)CC1` (stereo not drawn) [BDH_32360998]: the Inhibition percent under setting [3] is reported as -2.76%.

As to `Cn1cc(C(=O)Nc2cccc(C(=O)N3CCCC(Cc4ccnc5ccccc45)CC3)c2)cn1` (stereo not drawn) [BDH_32361062], the Inhibition percent under setting [2] was -0.32%.
